Assay results taken from patent publication US20240294551A1 (AMGEN INC., priority 2022, published 2024).
Read-outs that look alike come from different tables or passages of the source.

Tests used:
MIA PaCa-2 cells = test: MIA PaCa-2 CTG Assay (CellTiter-Glo cell viability); format: cell-based, human; conditions: second value of the cell
Protocol: MIA PaCa-2 CTG Assay Protocol
MIA PaCa-2 (human pancreatic carcinoma; ATCC CRL-1420) cells were cultured in RPMI 1640 medium containing 10% fetal bovine serum and 1× penicillin/streptomycin/L-glutamine. Cells were seeded in 384-well plates at a density of 1.67E+04 cells/mL and incubated at 37° C., 5% CO2, overnight. Serially-diluted compound or DMSO was added to the cells, and plates were incubated at 37° C., 5% CO2 for 72 h. Cell viability was measured using a CellTiter-Glo® Luminescent Cell Viability Assay kit (Promega) according to the manufacturer's protocol. The luminescence signal of treated samples was normalized to DMSO control, and data were analyzed using a 4-parameter logistic model to calculate IC50 values.

[1] = target: His-tagged KRAS G12D protein (Homo sapiens (Human), UniProt P01116, G12D); test: KRAS G12D TR-FRET Assay; format: binding
Outline: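 His-tagged KRAS G12D (diluted to 20 nM in pH 7.4 HEPES buffer with 10 mM MgCl2 and 10 μM GDP) was preincubated with titrated compound for 30 min at room temperature. Biotinylated KRPep-2d peptide (diluted to 20 nM) was then added for 1 h, and displacement was monitored by TR-FRET.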

[2] = tested on: Phosphorylation of ERK1/2 in AsPC-1 cells; test: Phospho-ERK1/2 MSD Assay; format: cell-based, human
Outline: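 Read-out: MSD electrochemiluminescent detection of phosphorylated ERK1/2 in whole-cell lysates, fitted to a 4-parameter logistic curve for IC50. Prior to lysis, AsPC-1 cells (25,000 per well) received a 2 h compound dose-response at 37 °C.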

[3] = target: GDP-bound KRAS protein (aa 1-169), containing both G12D and C118A amino acid substitutions (Homo sapiens (Human), UniProt P01116, C118A/G12D); test: KRAS G12D Coupled Nucleotide Exchange Assay; format: biochemical
AsPC-1 cells = test: AsPC-1 CTG Assay (CellTiter-Glo cell viability); format: cell-based, human; conditions: first value of the cell, read-out: G12D/C/V Cell Proliferation CTG (72 h) AsPC-1
Outline: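 Human pancreatic AsPC-1 or colon SW620 cells in RPMI 1640 with 10% FBS, seeded overnight, then exposed to serially diluted compound for 72 h at 37 °C. CellTiter-Glo luminescence normalized to DMSO control; IC50 from a 4-parameter logistic model.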

[4] = Homo sapiens, Mia PaCa-2, 72 h, read-out: G12D/C/V Cell Proliferation CTG (72 h) Mia PaCa-2
[5] = read-out: KRAS G12D Binding IC50
[6] = Homo sapiens, ASPC1, 2 h, read-out: 2 h p-ERK (AsPC-1 cells), IC50
[7] = read-out: KRAS G12D Coupled Exchange IC50
[8] = 2 h, read-out: 2 h p-ERK (AsPC-1 cells), IC50
[9] = Homo sapiens, ASPC1, 72 h, AsPC-1, 72 h
[10] = Homo sapiens, MIA PaCa-2 cells (G12C), 72 h, read-out: G12D/C/V Cell Proliferation CTG (72 h) MIA PaCa-2
[11] = Homo sapiens, ASPC1, 2 h, read-out: 2 h p-ERK (AsPC-1 cells)
[12] = TR-FRET, read-out: KRAS G12D Binding
[13] = 2 hours compound pre-incubation, read-out: KRAS G12D Coupled Exchange
[14] = Homo sapiens, ASPC1, 72 h, AsPC-1 cells (G12D), 72 h

His-tagged KRAS G12D protein, sequence (P01116 other isoform, or with tags, fused parts or gaps G12D): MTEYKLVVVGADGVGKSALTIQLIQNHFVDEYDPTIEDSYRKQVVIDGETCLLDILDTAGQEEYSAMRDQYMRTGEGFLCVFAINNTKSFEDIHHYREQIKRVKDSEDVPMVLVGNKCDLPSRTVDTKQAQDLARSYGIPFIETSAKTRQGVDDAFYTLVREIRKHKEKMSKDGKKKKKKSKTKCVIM
GDP-bound KRAS protein (aa 1-169), containing both G12D and C118A amino acid substitutions, sequence (P01116 other isoform, or with tags, fused parts or gaps G12D/C118A): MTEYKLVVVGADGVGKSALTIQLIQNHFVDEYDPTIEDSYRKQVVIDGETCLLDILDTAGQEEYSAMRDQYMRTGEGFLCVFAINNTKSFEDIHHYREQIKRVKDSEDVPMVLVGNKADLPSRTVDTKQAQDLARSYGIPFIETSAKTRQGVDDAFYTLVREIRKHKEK

| SMILES | IC50 (MIA PaCa-2 cells; [4]) [nM] | IC50 [1, 5] [nM] | IC50 [2, 6] [nM] | IC50 [3, 7] [nM] | IC50 (AsPC-1 cells; [9]) [nM] | other results |
| --- | --- | --- | --- | --- | --- | --- |
| C[C@@]12COCCN(C1)c1nc(OC[C@@]34CCCN3C[C@H](F)C4)nc3c(F)c(ncc13)-c1cccc(Cl)c1CCCOC(=O)O2 [Example 200, (23S)-15-chloro-29-fluoro-4-(((2R,7aS)-2-fluorotetrahydro-1H-pyrrolo[1,2-a]pyrrol-7a(5H)-yl)methoxy)-23-methyl-20,22,25-trioxa-1,3,5,9-tetraazapentacyclo[21.4.1.1~6,10~.0~2,7~.0~11,16~]nonacosa-2,4,6,8,10(29),11,13,15-octaen-21-one] | 320 | 10 | 262 | 4 |  |  |
| O=C1CC[C@@H]2C[C@@H]2c2c(Cl)cc3[nH]ncc3c2-c2ncc3c(nc(OC[C@@]45CCCN4C[C@H](F)C5)nc3c2F)N2CCC[C@H](C2)O1 [Example 127] |  | 4 |  | 3 |  | IC50 (MIA PaCa-2 cells; Mia PaCa-2, 72 h, read-out: G12D/C/V Cell Proliferation CTG (72 h) Mia PaCa-2): 120 nM; IC50 [2, 8]: 13 nM; IC50 (AsPC-1 cells; AsPC-1, 72 h): 230 nM |
| Fc1c2ncc3c(nc(OC[C@@]45CCCN4C[C@H](F)C5)nc13)N1CCC[C@H](C1)c1cnn(n1)CCCc1c(Cl)cc3[nH]ncc3c1-2 [Example 259] | 126 | 4 | 25.3 | 3 | 215 |  |
| O=C1OCCc2c(Cl)cc3[nH]ncc3c2-c2ncc3c(nc(OC[C@@]45CCCN4C[C@H](F)C5)nc3c2F)N2CCCCC(CO1)C2 (stereo partly shown) [Example 222] | 52 | 3 | 9.4 | 2 | 287 |  |
| Fc1c2ncc3c(nc(OC[C@@]45CCCN4C[C@H](F)C5)nc13)N1CCOC[C@H](C1)c1noc(n1)CCCc1c(Cl)cc3[nH]ncc3c1-2 [Example 381] |  |  |  |  |  | IC50 (MIA PaCa-2 cells; [10]): 12 nM; IC50 [2, 11]: 10.4 nM |
| Fc1c2ncc3c(nc(OC[C@@]45CCCN4C[C@H](F)C5)nc13)N1CCC[C@H](C1)c1coc(n1)CCCc1c(Cl)cc3[nH]ncc3c1-2 [Example 246, (18R)-9-chloro-31-fluoro-25-(((2R,7aS)-2-fluorotetrahydro-1H-pyrrolo[1,2-a]pyrrol-7a(5H)-yl)methoxy)-15-oxa-5,6,22,24,26,30,33-heptaazaheptacyclo[25.3.1.1~14,17~.1~18,22~.0~2,10~.0~3,7~.0~23,28~]tritriaconta-1(31),2,4,7,9,14(33),16,23,25,27,29-undecaene] | 82 |  |  |  |  | IC50 [2, 8]: 10.1 nM; IC50 (AsPC-1 cells; AsPC-1, 72 h): 112 nM |
| Fc1c2ncc3c(nc(OC[C@@]45CCCN4C[C@H](F)C5)nc13)N1CCCC[C@@](F)(COCCCCc3c(Cl)cc4[nH]ncc4c3-2)C1 [Example 399, (26S)-18-chloro-26,32-difluoro-4-(((2R,7aS)-2-fluorotetrahydro-1H-pyrrolo[1,2-a]pyrrol-7a(5H)-yl)methoxy)-24-oxa-1,3,5,9,14,15-hexaazahexacyclo[24.4.1.1~6,10~.0~2,7~.0~11,19~.0~12,16~]dotriaconta-2,4,6,8,10(32),11,13,16,18-nonaene] |  |  |  |  |  | IC50 (MIA PaCa-2 cells; [10]): 105 nM; IC50 [1, 12]: 4 nM; IC50 [2, 11]: 25.9 nM; IC50 [3, 13]: 2 nM; IC50 (AsPC-1 cells; [14]): 44 nM |
| O=C1OCCCc2c(F)cc3[nH]ncc3c2-c2ncc3c(nc(OC[C@@]45CCCN4C[C@H](F)C5)nc3c2F)N2CCOC[C@H](C2)O1 [Example 208, (26S)-18,32-difluoro-4-(((2R,7aS)-2-fluorotetrahydro-1H-pyrrolo[1,2-a]pyrrol-7a(5H)-yl)methoxy)-23,25,28-trioxa-1,3,5,9,14,15-hexaazahexacyclo[24.4.1.1~6,10~.0~2,7~.0~11,19~.0~12,16~]dotriaconta-2,4,6,8,10(32),11,13,16,18-nonaen-24-one] | 38 | 3 | 20.7 | 2 | 262 |  |
| C[C@@]12COCCN(C1)c1nc(OC[C@@]34CCCN3C[C@H](F)C4)nc3c(F)c(ncc13)-c1c3c(cc4[nH]ncc14)CC[C@H]3CCOC(=O)O2 [Example 365, (16S,22S)-34-fluoro-8-(((2R,7aS)-2-fluorotetrahydro-1H-pyrrolo[1,2-a]pyrrol-7a(5H)-yl)methoxy)-16-methyl-14,17,19-trioxa-3,7,9,11,28,29-hexaazaheptacyclo[20.9.1.1~2,6~.1~11,16~.0~5,10~.0~25,32~.0~27,31~]tetratriaconta-1(31),2(34),3,5,7,9,25(32),26,29-nonaen-18-one] | 11 | 3 | 6.7 | 1 | 141 |  |
| Cc1cc2[nH]ncc2c2c1CCCC(F)C(=O)N[C@@H]1CCCCN(C1)c1nc(OC[C@@]34CCCN3C[C@H](F)C4)nc3c(F)c-2ncc13 (single isomer, unassigned) [Example 160] | 420 | 4 |  | 3 | 587 | IC50 [2, 8]: 71.8 nM |
| C[C@@]12COCCN(C1)c1nc(OC[C@@]34CCCN3C[C@H](F)C4)nc3c(F)c(ncc13)-c1cccc3ccc(F)c(c13)CCOC(=O)O2 [Example 304, (16S)-23,32-difluoro-8-(((2R,7aS)-2-fluorotetrahydro-1H-pyrrolo[1,2-a]pyrrol-7a(5H)-yl)methoxy)-16-methyl-14,17,19-trioxa-3,7,9,11-tetraazahexacyclo[20.7.1.1~2,6~.1~11,16~.0~5,10~.0~26,30~]dotriaconta-1(30),2(32),3,5,7,9,22,24,26,28-decaen-18-one] | 380 | 15 | 103 | 4 |  |  |
| Fc1c2ncc3c(nc(OC[C@@]45CCCN4C[C@H](F)C5)nc13)N1CCC[C@@H](CSCCCCc3c(Cl)cc4[nH]ncc4c3-2)C1 [Example 143] | 480 |  | 109 |  | 980 |  |
| Cc1cc2[nH]ncc2c2c1CCCOC(=O)O[C@@H]1COCCN(C1)c1nc(OC[C@@]34CCCN3C[C@H](F)C4)nc3c(F)c-2ccc13 [Example 192, (26S)-32-fluoro-4-(((2R,7aS)-2-fluorotetrahydro-1H-pyrrolo[1,2-a]pyrrol-7a(5H)-yl)methoxy)-18-methyl-23,25,28-trioxa-1,3,5,14,15-pentaazahexacyclo[24.4.1.1~6,10~.0~2,7~.0~11,19~.0~12,16~]dotriaconta-2,4,6,8,10(32),11,13,16,18-nonaen-24-one] | 67 |  | 21.8 |  | 375 |  |
| Cc1c2ncc3c(nc(OC[C@@]45CCCN4C[C@H](F)C5)nc13)N1CCOC[C@H](C1)OC(=O)OCCCc1c(Cl)cc3[nH]ncc3c1-2 (atropisomer, axis not shown) [Example 341, (26S)-18-chloro-4-(((2R,7aS)-2-fluorotetrahydro-1H-pyrrolo[1,2-a]pyrrol-7a(5H)-yl)methoxy)-32-methyl-23,25,28-trioxa-1,3,5,9,14,15-hexaazahexacyclo[24.4.1.1~6,10~.0~2,7~.0~11,19~.0~12,16~]dotriaconta-2,4,6,8,10(32),11,13,16,18-nonaen-24-one] |  | 10 |  | 6 |  | IC50 [2, 8]: 65.5 nM; IC50 (AsPC-1 cells; AsPC-1, 72 h): 889 nM |
| Fc1c2ncc3c(nc(OC[C@@]45CCCN4C[C@H](F)C5)nc13)N1CCOC[C@H](Cc3ncc(o3)CCc3c(Cl)cc4[nH]ncc4c3-2)C1 (single isomer, unassigned) [Example 375] |  |  |  |  |  | IC50 [1, 12]: 27 nM; IC50 [2, 11]: 673 nM; IC50 [3, 13]: 15 nM; IC50 (AsPC-1 cells; [14]): 3120 nM |
| Cc1cc2[nH]ncc2c2c1CCCOC(=O)C[C@@H]1CCCN(C1)c1nc(OC[C@@]34CCCN3C[C@H](F)C4)nc3c(F)c-2ncc13 [Example 40] |  | 5 | 8 | 3 | 90 |  |
| Cc1cc2[nH]ncc2c2c1CCCOC(=O)O[C@H]1CN(CC[C@H]1F)c1nc(OC[C@@]34CCCN3C[C@H](F)C4)nc3c(F)c-2ncc13 (racemic) [Example 93] |  | 14 | 180 | 5 | 1250 |  |
